For 24 molecules, T/C results are on record in PubChem BioAssay AID330 (DTP/NCI, 2004).

Several values for one entry are separate records, joined by “and”; a condition that tells them apart may be missing. Equal values may be shown once. Toxic doses and inconclusive results are not listed. Square brackets hold non-standard residues; d marks the D form. Peptide text beside a SMILES is read from it. ξ: configuration not given here. ξR = N=C(N)NCCCC(N)C(=O)O

The subject of the assay is P388 leukemia ip, CD2F1 mice, survival T/C. Briefly: NCI In Vivo Anticancer Drug Screen. Data for tumor model P388 Leukemia (intraperitoneal) in CD2F1 (CDF1) mice. As to conditions: endpoint: median survival time, higher = longer survival. In short, it runs like this: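 Mice carrying the transplanted tumor received test compound or vehicle. Survival was recorded in each group, and the value is the treated-group measurement divided by that of the vehicle-treated control group.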

Setting [1] is: dose: 100.0 mg/kg/injection, schedule: Q01DX001 (ip), vehicle: Klucel (hydroxypropylcellulose) (HPC).
Setting [2] is: dose: 200.0 mg/kg/injection, schedule: Q01DX001 (ip), vehicle: Klucel (hydroxypropylcellulose) (HPC).
[3] abbreviates: dose: 400.0 mg/kg/injection, schedule: Q01DX001 (ip), vehicle: Klucel (hydroxypropylcellulose) (HPC).
Setting [4] is: dose: 15.0 mg/kg/injection, schedule: Q01DX005 (ip), vehicle: saline.
Where [5] appears, read: dose: 60.0 mg/kg/injection, schedule: Q01DX005 (ip), vehicle: saline.
Setting [6] is: dose: 60.0 mg/kg/injection, schedule: Q01DX005 (ip), vehicle: saline with Tween-80.
[7] abbreviates: dose: 120.0 mg/kg/injection, schedule: Q01DX005 (ip), vehicle: saline with Tween-80.
The mark [8] stands for this setting: dose: 240.0 mg/kg/injection, schedule: Q01DX005 (ip), vehicle: saline with Tween-80.
Setting [9] is: dose: 50.0 mg/kg/injection, schedule: Q01DX005 (ip), vehicle: saline.
The mark [10] stands for this setting: dose: 100.0 mg/kg/injection, schedule: Q01DX005 (ip), vehicle: saline.
[11] abbreviates: dose: 200.0 mg/kg/injection, schedule: Q01DX005 (ip), vehicle: saline.
The mark [12] stands for this setting: dose: 25.0 mg/kg/injection, schedule: Q01DX005 (ip), vehicle: Klucel (hydroxypropylcellulose) (HPC).
The mark [13] stands for this setting: dose: 50.0 mg/kg/injection, schedule: Q01DX005 (ip), vehicle: Klucel (hydroxypropylcellulose) (HPC).
Where [14] appears, read: dose: 100.0 mg/kg/injection, schedule: Q01DX005 (ip), vehicle: Klucel (hydroxypropylcellulose) (HPC).
Setting [15] is: dose: 50.0 mg/kg/injection, schedule: Q01DX009 (ip), vehicle: saline with Tween-80.
Where [16] appears, read: dose: 100.0 mg/kg/injection, schedule: Q01DX009 (ip), vehicle: saline with Tween-80.
The mark [17] stands for this setting: dose: 200.0 mg/kg/injection, schedule: Q01DX009 (ip), vehicle: saline with Tween-80.

Take `CCC1(CC)CCC(C(=O)OC)/C1=N\Nc1ccc([N+](=O)[O-])cc1[N+](=O)[O-]` (stereo unspecified): the T/C runs as follows: under setting [1], 102 % of control; under setting [2], 98 % of control; under setting [3], 100 % of control.
Regarding `CN(C)CCCN=c1c2ccccc2n(C)c2[nH]c(=O)n(C)c(=O)c12`, the T/C is 107 % of control (dose: 7.5 mg/kg/injection, schedule: Q01DX005 (ip), vehicle: saline); 124 % of control under setting [4]; 123 % of control under setting [5].
Turning to `CC(=O)CC(C)=NCC(C)N=C(C)CC(C)=O` (stereo unspecified), the T/C by setting is: (dose: 100.0 mg/kg/injection, schedule: Q04DX003 (ip), vehicle: saline) 100 % of control; (dose: 200.0 mg/kg/injection, schedule: Q04DX003 (ip), vehicle: saline) 100 % of control; (dose: 400.0 mg/kg/injection, schedule: Q04DX003 (ip), vehicle: saline) 100 % of control.
For `O=C(Nc1cc(-c2ccccc2)nn1-c1ccccc1)c1ccc(Cl)cc1`, the T/C was 99 % of control and 94 % of control under setting [6]; 93 % of control under setting [7]; 87 % of control and 94 % of control under setting [8].
As for `Cc1occ(Br)c(=O)c1O`, the T/C under setting [9] was 104 % of control, the T/C under setting [10] was 103 % of control and the T/C under setting [11] was 103 % of control.
As to `OCCc1cc(Cl)no1`, the T/C is, setting by setting: (dose: 50.0 mg/kg/injection, schedule: Q01DX005 (ip), vehicle: saline with Tween-80) 100 % of control; (dose: 100.0 mg/kg/injection, schedule: Q01DX005 (ip), vehicle: saline with Tween-80) 102 % of control; (dose: 200.0 mg/kg/injection, schedule: Q01DX005 (ip), vehicle: saline with Tween-80) 109 % of control.
Turning to `COc1cccc2c1C(=O)c1c(O)c3c(c(O)c1C2=O)CC(O)(C(C)=O)CC3OC1CC(OC(=O)c2ccc([N+](=O)[O-])cc2)C(OC(=O)c2ccc([N+](=O)[O-])cc2)C(C)O1` (stereo unspecified), the T/C runs as follows: (dose: 3.13 mg/kg/injection, schedule: Q04DX003 (ip), vehicle: distilled water + Tween-80) 100 % of control; (dose: 3.13 mg/kg/injection, schedule: Q04DX003 (ip), vehicle: saline with Tween-80) 100 % of control and 101 % of control; (dose: 6.25 mg/kg/injection, schedule: Q04DX003 (ip), vehicle: distilled water + Tween-80) 108 % of control; (dose: 6.25 mg/kg/injection, schedule: Q04DX003 (ip), vehicle: saline with Tween-80) 104 % of control and 100 % of control; (dose: 12.5 mg/kg/injection, schedule: Q04DX003 (ip), vehicle: distilled water + Tween-80) 101 % of control; (dose: 12.5 mg/kg/injection, schedule: Q04DX003 (ip), vehicle: saline with Tween-80) 101 % of control and 95 % of control. The T/C by setting is: (dose: 25.0 mg/kg/injection, schedule: Q04DX003 (ip), vehicle: distilled water + Tween-80) 95 % of control; (dose: 25.0 mg/kg/injection, schedule: Q04DX003 (ip), vehicle: saline with Tween-80) 101 % of control and 100 % of control; (dose: 50.0 mg/kg/injection, schedule: Q04DX003 (ip), vehicle: distilled water + Tween-80) 156 % of control; (dose: 50.0 mg/kg/injection, schedule: Q04DX003 (ip), vehicle: saline with Tween-80) 95 % of control and 100 % of control.
For `COc1ccccc1C(=O)CCN(C)C`, the T/C under setting [4] is 98 % of control; the T/C (dose: 30.0 mg/kg/injection, schedule: Q01DX005 (ip), vehicle: saline) was 112 % of control; the T/C under setting [5] is 114 % of control and 97 % of control.
Turning to `COC(=O)C1C2c3ccccc3C(C1C(=O)OC)[n+]1ccccc12` (stereo unspecified), the T/C is, setting by setting: under setting [12], 94 % of control; under setting [13], 94 % of control; under setting [14], 100 % of control.
Consider `CCOC1(OCC)N(S(=O)(=O)c2ccc(C)cc2)C(=O)C(=O)N1S(=O)(=O)c1ccc(C)cc1`, for which the T/C reads like this: (dose: 100.0 mg/kg/injection, schedule: Q04DX002 (ip), vehicle: saline) 100 % of control; (dose: 200.0 mg/kg/injection, schedule: Q04DX002 (ip), vehicle: saline) 106 % of control; (dose: 400.0 mg/kg/injection, schedule: Q04DX002 (ip), vehicle: saline) 103 % of control.
As for `NS(=O)(=O)c1ccc(NCc2cnc3ccccc3c2)cc1`, the T/C is 94 % of control (dose: 5.0 mg/kg/injection, schedule: Q01DX009 (ip), vehicle: saline); 88 % of control (dose: 10.0 mg/kg/injection, schedule: Q01DX009 (ip), vehicle: saline); 98 % of control (dose: 20.0 mg/kg/injection, schedule: Q01DX009 (ip), vehicle: saline).
As for `COc1ccc2nc(N=Nc3ccc(N4CCOCC4)cc3C)sc2c1`, the T/C runs as follows: under setting [1], 86 % of control; under setting [2], 86 % of control; under setting [3], 88 % of control.
Regarding `CC(=O)NC(Cc1cnc[nH]1)C(C)=O` (stereo unspecified), the T/C was 100 % of control (dose: 50.0 mg/kg/injection, schedule: Q01DX009 (ip), vehicle: saline); 98 % of control (dose: 100.0 mg/kg/injection, schedule: Q01DX009 (ip), vehicle: saline); 104 % of control (dose: 200.0 mg/kg/injection, schedule: Q01DX009 (ip), vehicle: saline).
In the case of `COC1/C=C/OC2(C)Oc3c(C)c(O)c4c(O)c(c(/C=N/N5CC(C)(C)N(Cc6ccccc6)CC5(C)C)c(O)c4c3C2=O)NC(=O)C(C)=C/C=C/C(C)C(O)C(C)C(O)C(C)C(OC(C)=O)C1C` (stereo unspecified), the T/C reads like this: under setting [15], 107 % of control; under setting [16], 118 % of control.
Regarding `O=c1oc2ccc3ccccc3c2cc1-c1c[nH]c2ccccc12`, the T/C was 98 % of control under setting [6], 95 % of control under setting [7] and 98 % of control under setting [8].
As for `O=Nc1cc(S(=O)(=O)O)c2ccccc2c1O`, the T/C was 100 % of control under setting [15], 90 % of control under setting [16] and 90 % of control under setting [17].
For `O=C(O[Si](Cc1ccccc1)(Cc1ccccc1)Cc1ccccc1)N(CCCl)CCCl`, the T/C reads like this: (dose: 12.5 mg/kg/injection, schedule: Q04DX002 (ip), vehicle: saline with Tween-80) 111 % of control; (dose: 25.0 mg/kg/injection, schedule: Q04DX002 (ip), vehicle: saline with Tween-80) 120 % of control; (dose: 25.0 mg/kg/injection, schedule: Q04DX003 (ip), vehicle: saline) 154 % of control; (dose: 50.0 mg/kg/injection, schedule: Q04DX002 (ip), vehicle: saline with Tween-80) 159 % of control; (dose: 50.0 mg/kg/injection, schedule: Q04DX003 (ip), vehicle: saline) 214 % of control; (dose: 100.0 mg/kg/injection, schedule: Q04DX002 (ip), vehicle: saline with Tween-80) 180 % of control.
Take `Ic1ncn(CCN2CCOCC2)c1I`: the T/C was 88 % of control under setting [12]; 97 % of control under setting [13]; 94 % of control under setting [14]; 97 % of control (dose: 200.0 mg/kg/injection, schedule: Q01DX005 (ip), vehicle: Klucel (hydroxypropylcellulose) (HPC)).
On to `Cc1ccc(NC(=O)Nc2ncn[nH]2)c(C)c1`, for which the T/C is 107 % of control under setting [15], 100 % of control under setting [16] and 107 % of control under setting [17].
For `CCOC(=O)C(C)P(=O)(OC)OC` (stereo unspecified), the T/C runs as follows: under setting [9], 100 % of control; under setting [10], 98 % of control; under setting [11], 103 % of control.
`CCCCOC(=O)C(CC)c1ccccc1` (stereo unspecified): the T/C by setting is: (dose: 100.0 mg/kg/injection, schedule: Q04DX003 (ip), vehicle: saline with Tween-80) 114 % of control; (dose: 200.0 mg/kg/injection, schedule: Q04DX003 (ip), vehicle: saline with Tween-80) 114 % of control; (dose: 400.0 mg/kg/injection, schedule: Q04DX003 (ip), vehicle: saline with Tween-80) 112 % of control.
As to `Cc1ccc2nc(C)cc(N=[N+]=[N-])c2c1`, the T/C by setting is: under setting [6], 95 % of control; under setting [7], 89 % of control.
`NC(N)=NCCCC(N)C(=O)NCC(=O)NCC(=O)O` (stereo not drawn) (H-[ξR]-Gly-Gly-OH): the T/C is, setting by setting: under setting [9], 98 % of control; under setting [10], 96 % of control; under setting [11], 98 % of control.
As for `COc1ccc(CCNC(=O)Cc2ccc(Cl)cc2)cc1OC`, the T/C reads like this: under setting [6], 99 % of control; under setting [7], 97 % of control; under setting [8], 92 % of control.
